{
  "source": "patent US10421676B2",
  "about": "“Bactericidal/algicidal method” (priority 2007, dated 2019)",
  "assay": "Open-circulating cooling water system, change over time in combined and free chlorine (Example 4 / Comparative Example 1)",
  "assay_type": "physicochemical",
  "conditions": "for Combined chlorine: total residual chlorine minus free chlorine (DPD)",
  "text": "In this open-circulating cooling water system, cooling water is supplied from a cooling tower 1 to a heat exchanger 3 via a cooling water pipe 2 and a pump P, and is returned to the cooling tower 1 via a cooling water pipe 4. The cooling tower 1 (refrigeration capacity: 400 RT, water storage capacity: 30 m^3) was operated at a concentration factor of 5. The cooling tower 1 has a fan F and contains therein air-conditioning cooling water W. The free chlorine concentration of the air-conditioning cooling water W is measured by means of a sensor S and controlled by means of a free chlorine control section 5 and a combined chlorine control section 6. The free chlorine control section 5 includes a chemical tank 51 and a chemical feed inlet 52. Combined chlorine control section 6 includes a chemical tank 61 and a chemical feed inlet 62. The amount of free chlorine or combined chlorine is controlled on the basis of the free chlorine concentration as measured by means of the sensor S employing an ORP electrode.\nThe amount of free chlorine was controlled through addition of a hypochlorite salt. Chlorosulfamic acid was employed as combined chlorine.\nIn the water system, chlorosulfamic acid was added so that the chlorine concentration was adjusted to 15 mg-Cl/L with respect to blowing down the cooling water. In the water system, the amount of the hypochlorite salt added was controlled by means of the sensor S so that free chlorine concentration was 0.5 mg-Cl/L. Combined chlorine concentration was measured through the DPD method (determined by use of the following relation: combined chlorine concentration=total residual chlorine concentration−free chlorine concentration).\nFlaked slime was non-forcedly discharged through blowing down at an intensity according to the concentration factor, and a forced removal of the slime (e.g., cleaning) was not carried out. Thus, the water system was continuously operated, and change over time in combined chlorine concentration and free chlorine concentration in the water system was observed.\nThe water system was continuously operated under the same conditions as in Example 4 (i.e., chlorosulfamic acid was added so that the chlorine concentration was adjusted to 15 mg-Cl/L with respect to blowing down the cooling water), except that free chlorine concentration was not controlled.",
  "data": [
    {"smiles": "O=S(=O)(O)NCl", "note": "[Comparative Example 1, Chlorosulfamic acid]", "values": [
      {"measurement": "Combined chlorine concentration, level over the operation period", "setting": "operation period up to 20 days", "value": "maintained at low level"},
      {"measurement": "Free chlorine", "setting": "period 1 days", "value": 0.0, "unit": "mg/L"},
      {"measurement": "Combined chlorine", "setting": "period 1 days", "value": 3, "unit": "mg/L"},
      {"measurement": "Free chlorine", "setting": "period 2 days", "value": 0.0, "unit": "mg/L"},
      {"measurement": "Combined chlorine", "setting": "period 2 days", "value": 4, "unit": "mg/L"},
      {"measurement": "Free chlorine", "setting": "period 8 days", "value": 0.1, "unit": "mg/L"},
      {"measurement": "Combined chlorine", "setting": "period 8 days", "value": 3, "unit": "mg/L"},
      {"measurement": "Free chlorine", "setting": "period 14 days", "value": 0.0, "unit": "mg/L"},
      {"measurement": "Combined chlorine", "setting": "period 14 days", "value": 2, "unit": "mg/L"},
      {"measurement": "Free chlorine", "setting": "period 20 days", "value": 0.1, "unit": "mg/L"},
      {"measurement": "Combined chlorine", "setting": "period 20 days", "value": 4, "unit": "mg/L"}
    ]}
  ]
}
